# Assay results taken from ChEMBL document CHEMBL1201862, “PubChem BioAssay data set” (2004).
# Calls of active or inactive are those of the source.
# Legend:
# [1] = Artemis endonuclease inhibitor potency, dose response, biochemical, fluorescence intensity (AID 720701); type: functional;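 further: Artemis endonuclease enzyme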
# [2] = biological target: Voltage-gated inwardly rectifying potassium channel KCNH2 (Homo sapiens, UniProt Q12809); assay: hERG protection from proarrhythmic block, potency, dose response, cell-based, thallium flux (AID 2121); type: ADME
# [3] = biological target: T1, Rac GTPase-activating protein 1 (Homo sapiens, UniProt Q9H0H5); assay: MgcRacGAP GTPase-activating activity inhibitors, confirmation, biochemical, ADP Hunter fluorescence, primary and confirmatory (AID 624330); type: functional
# T1 sequence (Q9H0H5 whole entry): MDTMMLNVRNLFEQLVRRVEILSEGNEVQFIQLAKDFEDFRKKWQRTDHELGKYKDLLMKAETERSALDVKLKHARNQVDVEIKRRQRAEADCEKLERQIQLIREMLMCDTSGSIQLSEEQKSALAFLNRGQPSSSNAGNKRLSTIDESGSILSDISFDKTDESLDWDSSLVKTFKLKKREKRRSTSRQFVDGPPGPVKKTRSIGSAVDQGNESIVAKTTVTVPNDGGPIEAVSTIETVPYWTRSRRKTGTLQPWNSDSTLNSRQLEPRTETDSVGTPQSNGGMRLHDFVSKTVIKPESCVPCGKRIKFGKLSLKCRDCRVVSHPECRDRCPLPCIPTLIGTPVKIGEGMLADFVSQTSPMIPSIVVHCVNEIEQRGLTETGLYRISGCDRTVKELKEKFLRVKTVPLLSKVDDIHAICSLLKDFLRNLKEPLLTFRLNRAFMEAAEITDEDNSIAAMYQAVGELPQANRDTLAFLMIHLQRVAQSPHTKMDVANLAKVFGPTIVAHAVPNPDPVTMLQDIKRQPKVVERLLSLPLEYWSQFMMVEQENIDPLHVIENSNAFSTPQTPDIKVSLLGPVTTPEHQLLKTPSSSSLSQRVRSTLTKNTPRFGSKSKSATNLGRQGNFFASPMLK
# [4] = biological target: FAD-linked sulfhydryl oxidase ALR (Homo sapiens, UniProt P55789); assay: inhibitors of human ALR sulfhydryl oxidase, dose response, biochemical, H2O2 detection, luminescence, cherry-pick (AID 493248)
# [5] = inhibitors of Vif binding to APOBEC3G peptide, primary screen, biochemical, TR-FRET, GST-Vif 1-94, biotin-A3G peptide, dose response retest (AID 1117319); type: functional;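 further: TR-FRET signal of purified GST-Vif binding a biotinylated A3G peptide; inhibitors lower the FRET signal by blocking Vif and A3G binding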
# [6] = biological target: RNA-editing ligase 1, mitochondrial (Trypanosoma brucei brucei, UniProt P86926); assay: TbREL1 ligase inhibitors, dose response, biochemical, fluorescence, Trypanosoma brucei (AID 1117295); type: functional
# [7] = biological target: T2, Low molecular weight phosphotyrosine protein phosphatase (Homo sapiens, UniProt P24666); assay: LMPTP phosphatase inhibitors, colorimetric pNPP readout, dose response, orthogonal assay, biochemical, absorbance, pNPP substrate, LMPTP-A isoform, set 2 (AID 743308); type: functional
# T2 sequence (P24666 whole entry): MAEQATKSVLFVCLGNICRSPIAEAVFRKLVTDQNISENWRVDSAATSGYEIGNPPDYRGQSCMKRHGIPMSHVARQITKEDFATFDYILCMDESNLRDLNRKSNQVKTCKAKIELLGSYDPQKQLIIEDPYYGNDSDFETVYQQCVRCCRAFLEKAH
# [8] = biological target: T2, Low molecular weight phosphotyrosine protein phosphatase; assay: LMPTP phosphatase inhibitors, dose response, biochemical, OMFP substrate, fluorescence intensity, set 2 (AID 743307); type: functional
# RNA-editing ligase 1, mitochondrial, sequence (P86926 whole entry, canonical isoform): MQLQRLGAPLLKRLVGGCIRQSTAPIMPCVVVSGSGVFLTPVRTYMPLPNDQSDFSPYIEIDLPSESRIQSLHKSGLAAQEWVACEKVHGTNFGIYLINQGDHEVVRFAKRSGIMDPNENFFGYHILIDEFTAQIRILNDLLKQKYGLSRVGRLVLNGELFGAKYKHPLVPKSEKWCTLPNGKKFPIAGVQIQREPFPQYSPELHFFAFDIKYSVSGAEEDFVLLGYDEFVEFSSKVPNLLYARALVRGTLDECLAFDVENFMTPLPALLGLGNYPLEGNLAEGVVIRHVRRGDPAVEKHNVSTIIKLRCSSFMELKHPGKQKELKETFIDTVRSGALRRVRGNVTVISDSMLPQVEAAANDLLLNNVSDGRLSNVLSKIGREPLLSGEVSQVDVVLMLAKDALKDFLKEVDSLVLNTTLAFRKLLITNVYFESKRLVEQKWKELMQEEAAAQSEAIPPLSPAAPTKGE
# Voltage-gated inwardly rectifying potassium channel KCNH2, sequence (Q12809 whole entry): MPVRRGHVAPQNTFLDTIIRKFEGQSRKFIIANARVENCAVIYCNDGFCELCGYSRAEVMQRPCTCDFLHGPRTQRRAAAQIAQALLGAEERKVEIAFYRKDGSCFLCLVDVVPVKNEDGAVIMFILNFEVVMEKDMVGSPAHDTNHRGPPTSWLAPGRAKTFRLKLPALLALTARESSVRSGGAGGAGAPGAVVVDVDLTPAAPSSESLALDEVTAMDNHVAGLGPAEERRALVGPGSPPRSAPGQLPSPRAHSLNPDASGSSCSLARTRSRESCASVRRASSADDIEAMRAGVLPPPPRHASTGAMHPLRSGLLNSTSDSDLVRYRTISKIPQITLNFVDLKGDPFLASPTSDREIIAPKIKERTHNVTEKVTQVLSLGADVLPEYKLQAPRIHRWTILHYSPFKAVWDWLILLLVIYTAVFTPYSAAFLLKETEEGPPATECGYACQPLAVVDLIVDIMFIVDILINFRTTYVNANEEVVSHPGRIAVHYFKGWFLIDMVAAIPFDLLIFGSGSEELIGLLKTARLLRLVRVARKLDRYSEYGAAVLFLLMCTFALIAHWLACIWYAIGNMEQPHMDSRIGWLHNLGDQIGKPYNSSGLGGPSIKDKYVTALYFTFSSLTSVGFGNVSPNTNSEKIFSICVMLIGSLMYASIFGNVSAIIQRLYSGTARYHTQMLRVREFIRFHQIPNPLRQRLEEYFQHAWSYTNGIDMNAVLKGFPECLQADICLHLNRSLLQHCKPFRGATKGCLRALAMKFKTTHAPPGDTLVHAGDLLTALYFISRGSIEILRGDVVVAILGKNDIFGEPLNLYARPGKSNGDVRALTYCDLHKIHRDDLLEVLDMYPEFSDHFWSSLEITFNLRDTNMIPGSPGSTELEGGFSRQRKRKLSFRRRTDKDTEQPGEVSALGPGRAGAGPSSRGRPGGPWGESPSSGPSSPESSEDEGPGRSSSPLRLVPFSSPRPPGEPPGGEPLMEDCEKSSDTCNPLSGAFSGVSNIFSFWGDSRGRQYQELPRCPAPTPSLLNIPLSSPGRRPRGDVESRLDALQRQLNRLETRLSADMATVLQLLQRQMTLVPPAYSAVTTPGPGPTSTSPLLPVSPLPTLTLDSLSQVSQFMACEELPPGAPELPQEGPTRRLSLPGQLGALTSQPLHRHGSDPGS
# FAD-linked sulfhydryl oxidase ALR, sequence (P55789 whole entry): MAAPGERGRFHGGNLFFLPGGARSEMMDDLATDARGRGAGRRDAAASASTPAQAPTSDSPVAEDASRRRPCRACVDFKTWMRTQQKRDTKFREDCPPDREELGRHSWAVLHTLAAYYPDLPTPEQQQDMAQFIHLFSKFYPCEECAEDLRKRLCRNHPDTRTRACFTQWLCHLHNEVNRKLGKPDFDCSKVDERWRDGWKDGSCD
structure (smiles),measurement,setting,value
Cc1cc(C)n(-c2nc(NCC(C)O)c3c4c(sc3n2)CCCC4)n1 (stereo unspecified),IC50,[1],15 µM (active)
COc1ccc(OC)c(NC(=O)C(=O)NNC(=O)c2cccs2)c1,EC50,[2],3.5 µM (active)
COc1cc(/C=N/NC2=NC(=O)C(c3ccccc3)S2)ccc1O (stereo unspecified),IC50,[3],44.3 µM (active)
same,AC50,[4],0.249 µM (active)
same,IC50,[5],> 100 µM (active)
CCNC1=NC(c2ccccc2C(F)(F)F)C(C(=O)OC)=C(C)N1Cc1ccc(C(F)(F)F)cc1 (stereo unspecified),IC50,[6],> 96.6 µM (inactive)
Clc1cccc(-c2cc(NCCCN3CCCCC3)c3ccccc3n2)c1,IC50,[7],1.85 µM (active)
same,IC50,[8],1.12 µM (active)
COC(=O)C1=C(C)N(Cc2ccc(C(F)(F)F)cc2)C(NCc2ccc3c(c2)OCO3)=NC1c1ccccc1C(F)(F)F (stereo unspecified),IC50,[6],> 96.6 µM (inactive)
CC(C)CNc1nc(-c2ccccc2)nc2ccccc12,IC50,[7],58.5 µM (inactive)
same,IC50,[8],14.5 µM (active)
